Assay [1] addresses T1, Orexin receptor type 2 (Homo sapiens, UniProt O43614).
T1 sequence (O43614 whole entry): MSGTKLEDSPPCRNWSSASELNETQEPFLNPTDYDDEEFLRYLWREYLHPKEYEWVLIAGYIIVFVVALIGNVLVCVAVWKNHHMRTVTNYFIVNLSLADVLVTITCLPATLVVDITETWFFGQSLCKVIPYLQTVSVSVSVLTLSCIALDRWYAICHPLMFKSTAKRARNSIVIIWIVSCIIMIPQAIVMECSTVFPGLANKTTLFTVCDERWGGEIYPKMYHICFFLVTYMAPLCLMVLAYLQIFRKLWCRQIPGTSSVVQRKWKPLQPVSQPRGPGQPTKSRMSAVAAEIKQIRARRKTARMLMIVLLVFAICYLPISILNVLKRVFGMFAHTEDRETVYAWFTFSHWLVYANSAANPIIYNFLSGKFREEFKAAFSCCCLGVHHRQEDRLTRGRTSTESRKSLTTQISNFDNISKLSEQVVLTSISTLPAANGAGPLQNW
Briefly: (§1) Radioligand Binding: HEK293 stably expressing human orexin-2 receptor (Genebank accession number NM 001526) were grown to confluency in DMEM/F12 (Gibco, Cat #11039), in DMEM, 10% FBS, 1× Pen/Strep, 1× NaPyruvate, 1×HEPES, 600 ug/ml G418 media on 150 cm2 tissue culture plates, washed with 5 mM EDTA in PBS (HyClone Dulbecco's Phosphate Buffered Saline 1× with Calcium and Magnesium, Cat #SH30264.01, hereafter referred to simply as PBS) and scraped into 50 ml tubes. After centrifugation (2K xG, 10 min at 4° C.), the supernatant was aspirated and the pellets frozen and stored at −80° C. Cells were resuspended in PBS in the presence of 1 tablet of protease inhibitor cocktail (Roche, Cat. #11836145001) per 50 mL.

For assay [2], the target named is T2, Orexin/Hypocretin receptor type 1 (Homo sapiens, UniProt O43613).
T2 sequence (O43613 whole entry): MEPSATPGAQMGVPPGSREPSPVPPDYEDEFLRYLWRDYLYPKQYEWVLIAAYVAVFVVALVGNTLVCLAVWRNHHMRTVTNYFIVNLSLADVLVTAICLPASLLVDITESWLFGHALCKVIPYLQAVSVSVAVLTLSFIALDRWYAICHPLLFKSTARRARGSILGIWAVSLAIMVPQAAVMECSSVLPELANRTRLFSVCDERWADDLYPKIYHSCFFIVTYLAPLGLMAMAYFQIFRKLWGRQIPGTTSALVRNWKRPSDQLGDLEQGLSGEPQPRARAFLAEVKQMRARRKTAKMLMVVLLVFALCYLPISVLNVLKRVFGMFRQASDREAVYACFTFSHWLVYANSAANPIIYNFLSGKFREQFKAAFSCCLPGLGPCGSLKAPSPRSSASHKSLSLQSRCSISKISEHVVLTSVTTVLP
The description is as §1, with “Chinese ovary cells (CHO)” for “HEK293”, “orexin 1” for “orexin-2”, “#11039),” for “#11039), in DMEM,”, “Pen/Strep,” for “Pen/Strep, 1× NaPyruvate, 1×HEPES,”, “μg/mL” for “ug/ml”, “Phoshpate” for “Phosphate”. The assay is classed as cell-based.

The record followed here is ChEMBL document CHEMBL3639344, “Fused heterocyclic compounds as orexin receptor modulators” (2014).

Turning to `Cc1cc(C)nc(N2C[C@@H]3CCN(C(=O)c4ccccc4-c4nc(C)no4)C[C@@H]32)n1`, the results for the inhibition constant Ki in assay [1] and in assay [2] were 0.059 µM and 1.59 µM, respectively.

A word on the Ki: it is a dissociation constant, usually derived from enzyme kinetics or from competition with a known ligand.
